Measurements as given in US6800648B2, “Antipsychotic aminomethyl derivatives of 7,8-dihydro-3H-1,6,9-trioxa-3-AZA-cyclopenta[a]naphthalen-2-one” (Wyeth, priority 2001, dated 2004).
Where a name gives a salt, the structure may show the parent alone.

How the values were obtained:
dopamine D2 receptor = molecular target: T1, dopamine D2 receptor (Rattus norvegicus, UniProt P61169); assay: Dopamine D2 receptor affinity, 3H-quinpirole binding in homogenized rat striatal brain tissue
T1 construct: from tissue; host or cells: rat striatal brain tissue homogenate
T1 sequence (P61169 whole entry): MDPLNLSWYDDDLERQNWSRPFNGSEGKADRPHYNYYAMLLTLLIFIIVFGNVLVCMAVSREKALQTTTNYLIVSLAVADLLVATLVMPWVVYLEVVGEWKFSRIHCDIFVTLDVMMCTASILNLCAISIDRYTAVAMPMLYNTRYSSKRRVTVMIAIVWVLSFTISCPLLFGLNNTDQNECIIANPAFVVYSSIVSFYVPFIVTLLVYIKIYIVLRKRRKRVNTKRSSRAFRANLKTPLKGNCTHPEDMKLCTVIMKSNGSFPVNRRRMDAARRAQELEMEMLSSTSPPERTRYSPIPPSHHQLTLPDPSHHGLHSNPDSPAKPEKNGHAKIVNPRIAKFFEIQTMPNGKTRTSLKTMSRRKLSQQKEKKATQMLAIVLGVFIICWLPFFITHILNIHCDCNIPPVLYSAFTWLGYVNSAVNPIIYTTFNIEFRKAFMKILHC
Protocol: Affinity for the dopamine D2 receptor was established by a modification of the standard experimental test procedure of Seemen and Schaus, European Journal of Pharmacology 203: 105-109, 1991, wherein homogenized rat striatal brain tissue is incubated with ^3H-quinpirole and various concentrations of test compound, filtered and washed and counted in a Betaplate scintillation counter.

mouse locomotor activity = assay: Reduction of mouse locomotor activity (functional antagonism of dopamine receptors in vivo); details: mice (male, CF-1), sc, horizontal activity counts 10 to 20 minutes after dosing
Protocol: The antipsychotic activity of the compounds of the invention was established by a determination of functional antagonism of dopamine receptors in vivo, specifically the compounds' ability to reduce mouse locomotor activity according to the method of Martin and Bendensky, J. Pharmacol. Exp. Therap. 229: 706-711, 1984, in which mice (male, CF-1, Charles River, 20-30 g) were injected with vehicle or various doses of each drug and locomotor activity was measured for 30 minutes using automated infrared activity monitors (Omnitech—8×8 inch open field) located in a darkened room. ED50's were calculated from the horizontal activity counts collected from 10 to 20 minutes after dosing using a nonlinear regression analysis with inverse prediction.

SMILES | melting point [°C] | IC50 (dopamine D2 receptor) [nM] | ED50 (mouse locomotor activity) [mg/kg]
O=c1[nH]c2ccc3c(c2o1)OC(CN1CC=C(c2c[nH]c4ccccc24)CC1)CO3 (stereo not shown) | 202 | – | –
NCC1COc2ccc3[nH]c(=O)oc3c2O1 (stereo not shown) (as salt: HCl) [Example 1, 8-Aminomethyl-7,8-dihydro-3H-1,6,9-trioxa-3-aza-cyclopenta[a]naphthalen-2-one] | > 250 | – | –
O=c1[nH]c2ccc3c(c2o1)OC(CNCc1ccccc1)CO3 (stereo not shown) (as salt: fumarate) (hydrate or solvate) [Example 2, 8-(Benzylamino-methyl)-7,8-dihydro-3H-1,6,9-trioxa-3-aza-cyclopenta[a]naphthalen-2-one] | 220 | – | –
O=c1[nH]c2ccc3c(c2o1)OC(CNCCCCc1ccccc1)CO3 (stereo not shown) (as salt: fumarate) (hydrate or solvate) [Example 4, 8-[(4-Phenyl-butylamino)-methyl]-7,8-dihydro-3H-1,6,9-trioxa-3-aza-cyclopenta[a]naphthalen-2-one] | 215 to 218 | – | –
NCC1COc2ccc3[nH]c(=O)oc3c2O1 (stereo not shown) [Example 1, 8-Aminomethyl-7,8-dihydro-3H-1,6,9-trioxa-3-aza-cyclopenta[a]naphthalen-2-one] | – | 3.7 | –
O=c1[nH]c2ccc3c(c2o1)OC(CNCc1ccccc1)CO3 (stereo not shown) [Example 2, 8-(Benzylamino-methyl)-7,8-dihydro-3H-1,6,9-trioxa-3-aza-cyclopenta[a]naphthalen-2-one] | – | 0.16 | –
O=c1[nH]c2ccc3c(c2o1)OC(CN(Cc1ccccc1)Cc1ccccc1)CO3 (stereo not shown) [Example 3, 8-[(Dibenzylamino)-methyl]-7,8-dihydro-3H-1,6,9-trioxa-3-aza-cyclopenta[a]naphthalen-2-one] | 210 | 475 | ≥ 50
O=c1[nH]c2ccc3c(c2o1)OC(CNCCCCc1ccccc1)CO3 (stereo not shown) [Example 4, 8-[(4-Phenyl-butylamino)-methyl]-7,8-dihydro-3H-1,6,9-trioxa-3-aza-cyclopenta[a]naphthalen-2-one] | – | 2 | –
